Measurements reported in patent US20220241176A1, “METHOD FOR LOADING OF MICROORGANISMS ON MULTIPHASE BIOMATERIALS” (priority 2019, published 2022).

How the values were obtained:
S. aureus [1] = assay: Agar diffusion test of loaded BNC fleeces against S. aureus; assay type: cell-based, Staphylococcus aureus
Protocol: The evaluation of the antibacterial activity of B. subtilis and B. megaterium loaded—BNC against gram-positive S. aureus was determined by an agar diffusion test. Therefore, the bacterial suspensions of B. subtilis and S. aureus were prepared in TSB broth medium as described before. […] 3 BNC fleeces were loaded using B. subtilis suspension in TSB medium, and 3 BNC fleeces were loaded using B. subtilis suspension in saline. Further 3 BNC fleeces were loaded using the B. subtilis free-supernatant, 3 BNC fleeces were loaded with gentamycin as positive control, and 3 BNC fleeces with isotonic saline as negative control. The OD600 of S. aureus was adjusted to 0.5 McFarland using sterilized saline NaCl 0.9% and the optical density spectrophotometer (Biophotometer) was determined. 20 μl of S. aureus was spread on the surface of Mueller-Hinton agar plate by a sterilized glass spreader. The last control and loaded BNC fleeces were added onto surface of the Mueller Hinton agar: 1. Negative control: saline-loaded BNC 2. Positive control: gentamicin-loaded BNC 3. B. subtilis-loaded BNC in TSB medium 4. B. subtilis-loaded BNC in saline 5. B. subtilis-free supernatant-loaded BNC.

S. aureus [2] = assay: Agar well diffusion test against S. aureus (without BNC); assay type: cell-based, Staphylococcus aureus
Protocol: For the agar diffusion test the OD600 of B. megaterium and B. subtilis was adjusted to 0.1 McFarland using sterilized saline NaCl 0.9%. The OD600 of S. aureus was adjusted to 0.5 McFarland using sterilized saline NaCl 0.9%. 20 μl of S. aureus was spread on the surface of Mueller-Hinton agar plate by a sterilized glass spreader. The wells are […] on the agar plate using the back side of a 1 ml pipette tip. A small volume of Mueller-Hinton agar was melted in boiling water bath, then 100 μl of it was used to close the bottom of each created well. After solidification of the agar in the bottom of the wells, the wells were filled with 100 μl of: Negative control, sterilized saline NaCl 0.9%, Positive control, gentamicin 300 μg/ml, B. megaterium or B. subtilis-free supernatant, B. megaterium or B. subtilis suspension.

gentamicin [Gentamycin]
inhibition effect on S. aureus, on BNC - injection technique (S. aureus [1]): + (by detection of inhibition zone > 2 mm)
inhibition effect on S. aureus, on BNC - spray technique (S. aureus [1]): + (by detection of inhibition zone > 2 mm)
inhibition effect on S. aureus, on BNC - vortex technique (S. aureus [1]): + (by detection of inhibition zone > 2 mm)
inhibition zone (in words) (S. aureus [2]; agar well diffusion, 100 μl per well, 37° C., 24 h): inhibition zone
inhibition effect on S. aureus, Without BNC (S. aureus [2]; diffusion test): + (by detection of inhibition zone > 2 mm)
